Structures are written as SMILES. Read-outs that look alike come from different tables or passages of the source. Bounds are passed on as bounds.

One series addresses T1, Human MAO-A (Homo sapiens, UniProt P21397).
T1 construct: purchased Sigma-Aldrich
T1 sequence (P21397 1-527): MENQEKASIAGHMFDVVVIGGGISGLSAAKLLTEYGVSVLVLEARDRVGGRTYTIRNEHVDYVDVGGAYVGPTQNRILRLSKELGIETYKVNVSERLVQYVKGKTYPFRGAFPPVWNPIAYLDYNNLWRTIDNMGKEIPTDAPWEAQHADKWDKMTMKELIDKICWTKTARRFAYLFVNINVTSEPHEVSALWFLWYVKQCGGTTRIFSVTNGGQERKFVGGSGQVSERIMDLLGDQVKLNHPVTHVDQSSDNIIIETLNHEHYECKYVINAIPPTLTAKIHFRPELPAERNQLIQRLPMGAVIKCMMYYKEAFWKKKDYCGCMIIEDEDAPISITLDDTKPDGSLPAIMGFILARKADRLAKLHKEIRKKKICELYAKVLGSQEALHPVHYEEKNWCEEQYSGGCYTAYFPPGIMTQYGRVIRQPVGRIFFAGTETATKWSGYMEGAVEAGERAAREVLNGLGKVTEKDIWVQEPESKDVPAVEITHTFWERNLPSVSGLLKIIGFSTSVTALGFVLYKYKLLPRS
Nature of the series: hMAO-A inhibition assay. Format: biochemical. Particulars: for inhibition at 10 µM: read-out: hMAO-A inhibitory rate at 10 μM, 10 μM (highest concentration tested). How it is done: Further, the inhibitory activity of compounds against hMAO-A isoform was tested and calculated as a selectivity index [Selectivity index (SI): IC50 (hMAO-A)/IC50 (hMAO-B)].
(§1) The reagents and enzymes (Human MAO-B and Human MAO-A) applied in this experiment were purchased from Sigma-Aldrich. According to the manuals, all components (substrate solution and enzyme solution) are diluted and placed aside for use. The detailed process has been mentioned in our early work[34].

The nature of series [1]: pKa determination by automated spectrophotometric titration. Particulars: 0.1 M KCl solution. The format is physicochemical.
For a further series, the target named is T2, MAO-B (Homo sapiens, UniProt P27338).
T2 construct: purchased Sigma-Aldrich
T2 sequence (P27338 1-520): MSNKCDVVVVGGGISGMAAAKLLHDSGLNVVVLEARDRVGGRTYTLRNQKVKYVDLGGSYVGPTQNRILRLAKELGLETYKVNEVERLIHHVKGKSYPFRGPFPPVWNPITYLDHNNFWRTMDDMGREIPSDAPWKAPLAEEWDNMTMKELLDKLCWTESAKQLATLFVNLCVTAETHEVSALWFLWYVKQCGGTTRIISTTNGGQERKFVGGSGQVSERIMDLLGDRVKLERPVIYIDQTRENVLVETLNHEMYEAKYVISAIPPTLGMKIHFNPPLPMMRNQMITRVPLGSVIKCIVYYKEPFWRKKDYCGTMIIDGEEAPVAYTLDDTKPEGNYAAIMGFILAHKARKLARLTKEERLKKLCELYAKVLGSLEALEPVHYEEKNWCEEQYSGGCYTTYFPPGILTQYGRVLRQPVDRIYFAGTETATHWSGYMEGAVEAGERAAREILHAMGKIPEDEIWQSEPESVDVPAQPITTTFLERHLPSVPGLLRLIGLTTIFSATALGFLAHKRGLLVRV
Nature of the series: hMAO-B inhibition assay. The format is biochemical. Particulars: for inhibition at 0.1 µM: hMAO-B, 100 nM, read-out: Inhibitory rate (%, 100 nM). The protocol: as §1

A short description of series [2]: iron (III) affinity constants and pFe3+ by spectrophotometric titration. Format: physicochemical. To be noted: for Log β1 / Log β2 / Log β3: DMSO: KCl (0.1 M) = 1:1.5 (v/v); for pFe^3+: calculated from Log β values obtained in DMSO: KCl (0.1 M) = 1:1.5 (v/v).

`Cc1c(O)c(=O)ccn1CCNC(=O)c1coc2cc(OCc3ccc(F)cc3)ccc2c1=O` [Compound 15e, 7-((4-Fluorobenzyl)oxy)-N-(2–(3-hydroxy-2-methyl-4-oxopyridin-1(4H)-yl)ethyl)-4-oxo-4H-chromene-3-carboxamide] gave a melting point of 246 to 248 °C. Further, the inhibition at 10 µM at Human MAO-A was < 20%. For the same compound, in series [1] (read-out: pKa1), the pKa was 2.89. In series [1] (read-out: pKa2), the pKa came out at 9.57. On MAO-B, half-maximal inhibition (IC50) was put at 106.4 ± 0.2 nM, the “SI: hMAO-B selectivity index = IC50 (hMAO-A)/IC50 (hMAO-B)” value (“SI: hMAO-B selectivity index = IC50” for short) was >94 and the inhibition at 0.1 µM is 42.4 ± 2.1%. Besides, in series [2], the “Log β1” value is listed as 13.24, the “Log β2” value is on record as 24.65, the “Log β3” value turned out to be 34.50 and the “pFe^3+” value is given as 18.52.
For `Cc1c(O)c(=O)ccn1CCNC(=O)c1coc2cc(OCc3cccc(Cl)c3)ccc2c1=O` [Compound 15f, 7-((3-Chlorobenzyl)oxy)-N-(2–(3-hydroxy-2-methyl-4-oxopyridin-1(4H)-yl)ethyl)-4-oxo-4H-chromene-3-carboxamide], the melting point lay within 230 to 232 °C. For the same compound, at Human MAO-A, the inhibition at 10 µM was < 20%. In addition, in series [1] (read-out: pKa1), the pKa was 3.35. For the same compound, the pKa in series [1] (read-out: pKa2) is 9.52. In addition, on MAO-B, the 50% inhibitory concentration (IC50) was determined as 129.5 ± 0.8 nM and the inhibition at 0.1 µM is 41.2 ± 2.8%. Further, in series [2], the “Log β1” value is 13.79, the “Log β2” value was found to be 25.03, the “Log β3” value worked out at 33.91 and the “pFe^3+” value is recorded as 18.09.
As for `Cc1ccc2c(=O)c(CNCCn3ccc(=O)c(O)c3C)coc2c1` [Compound 17b, 3-Hydroxy-2-methyl-1–(2-(((7-methyl-4-oxo-4H-chromen-3-yl)methyl)amino)ethyl)pyridin-4(1H)-one], the melting point was 251 to 253 °C. For the same compound, the inhibition at 10 µM on Human MAO-A is < 20%. In addition, in series [1] (read-out: pKa1), the pKa worked out at 2.95. The pKa in series [1] (read-out: pKa2) came out at 9.82. Further, at MAO-B, 82.78 ± 0.7 nM corresponded to half-maximal inhibition (IC50), the “SI: hMAO-B selectivity index = IC50” value was >120 and the inhibition at 0.1 µM came out at 49.5 ± 0.3%. In series [2], the “Log β1” value was found to be 13.58, the “Log β2” value came to 25.38, the “Log β3” value came to 35.34 and the “pFe^3+” value was 18.61.
On to `Cc1ccc2occ(CNCCn3ccc(=O)c(O)c3C)c(=O)c2c1` [Compound 17c, 3-Hydroxy-2-methyl-1–(2-(((6-methyl-4-oxo-4H-chromen-3-yl)methyl)amino)ethyl)pyridin-4(1H)-one], for which the melting point fell in the range of 259 to 261 °C. The inhibition at 10 µM at Human MAO-A is < 20%. In addition, in series [1] (read-out: pKa1), the pKa was found to be 2.75. For the same compound, the pKa in series [1] (read-out: pKa2) was 9.76. In addition, at MAO-B, the concentration for half-maximal inhibition (IC50) was found to be 86.3 ± 0.7 nM, the “SI: hMAO-B selectivity index = IC50” value is reported as >116 and the inhibition at 0.1 µM amounted to 44.23 ± 0.1%. Also, in series [2], the “Log β1” value is on record as 13.31, the “Log β2” value is 25.00, the “Log β3” value is given as 34.07 and the “pFe^3+” value was 17.55.
The compound `COc1ccc2occ(CNCCn3ccc(=O)c(O)c3C)c(=O)c2c1` [Compound 17e, 3-Hydroxy-1–(2-(((6-methoxy-4-oxo-4H-chromen-3-yl)methyl)amino)ethyl)-2-methylpyridin-4(1H)-one] displayed a melting point of 267 to 269 °C. Besides, the inhibition at 10 µM at Human MAO-A was < 20%. For the same compound, the pKa in series [1] (read-out: pKa1) was found to be 2.76. In addition, in series [1] (read-out: pKa2), the pKa stood at 9.83. Moreover, at MAO-B, 88.7 ± 5.3 nM corresponded to half-maximal inhibition (IC50), the “SI: hMAO-B selectivity index = IC50” value is >112 and the inhibition at 0.1 µM was 46.4 ± 1.3%. Further, in series [2], the “Log β1” value was 13.32, the “Log β2” value is 25.08, the “Log β3” value is 34.89 and the “pFe^3+” value is given as 18.12.
As for `Cc1c(O)c(=O)ccn1CCNCc1coc2cc(OCc3ccccc3)ccc2c1=O` [Compound 17f, 1–(2-(((7-(Benzyloxy)-4-oxo-4H-chromen-3-yl)methyl)amino)ethyl)-3-hydroxy-2-methylpyridin-4(1H)-one], the melting point lay in the range of 169 to 171 °C. The compound also yielded an IC50 at Human MAO-A of 795 ± 0.7 nM. For the same compound, the pKa in series [1] (read-out: pKa1) worked out at 2.73. Besides, in series [1] (read-out: pKa2), the pKa is 9.69. Moreover, at MAO-B, inhibition was half-maximal at 76.4 ± 3.8 nM (IC50), the “SI: hMAO-B selectivity index = IC50” value worked out at 10.4 and the inhibition at 0.1 µM is 49 ± 0.6%. Besides, in series [2], the “Log β1” value is reported as 13.20, the “Log β2” value was 24.70, the “Log β3” value is recorded as 33.77 and the “pFe^3+” value was 17.45.
Regarding `Cc1cccc(COc2ccc3c(=O)c(CNCCn4ccc(=O)c(O)c4C)coc3c2)c1` [Compound 17g, 3-Hydroxy-2-methyl-1–(2-(((7-((3-methylbenzyl)oxy)-4-oxo-4H-chromen-3-yl)methyl)amino)ethyl)pyridin-4(1H)-one], the melting point was in the range of 211 to 213 °C. The same compound gave a half-inhibitory concentration (IC50) on Human MAO-A of 1666 ± 5.7 nM. Also, the pKa in series [1] (read-out: pKa1) stood at 2.68. For the same compound, the pKa in series [1] (read-out: pKa2) is 9.62. Moreover, on MAO-B, the 50% inhibitory concentration (IC50) stood at 78 ± 4.3 nM, the “SI: hMAO-B selectivity index = IC50” value stood at 21.4 and the inhibition at 0.1 µM stood at 55.8 ± 2.7%. Also, in series [2], the “Log β1” value stood at 13.02, the “Log β2” value was found to be 24.75, the “Log β3” value was determined as 33.78 and the “pFe^3+” value is recorded as 17.66.
For `Cc1c(O)c(=O)ccn1CCNCc1coc2cc(OCc3ccc(F)cc3)ccc2c1=O` [Compound 17j, 1–(2-(((7-((4-Fluorobenzyl)oxy)-4-oxo-4H-chromen-3-yl)methyl)amino)ethyl)-3-hydroxy-2-methylpyridin-4(1H)-one], the melting point was 218 to 220 °C. In addition, the inhibition at 10 µM on Human MAO-A is < 20%. Moreover, the pKa in series [1] (read-out: pKa1) came to 2.76. In series [1] (read-out: pKa2), the pKa amounted to 9.53. Moreover, on MAO-B, the IC50 is 102 ± 3.2 nM, the “SI: hMAO-B selectivity index = IC50” value was >99 and the inhibition at 0.1 µM turned out to be 46 ± 0.7%. Moreover, in series [2], the “Log β1” value stood at 13.13, the “Log β2” value is 24.78, the “Log β3” value amounted to 33.73 and the “pFe^3+” value is 17.89.
`Cc1c(O)c(=O)ccn1CCNCc1coc2cc(OCc3cccc(Cl)c3)ccc2c1=O` [Compound 17k, 1–(2-(((7-((3-Chlorobenzyl)oxy)-4-oxo-4H-chromen-3-yl)methyl)amino)ethyl)-3-hydroxy-2-methylpyridin-4(1H)-one] had a melting point of 226 to 228 °C. Moreover, the inhibition at 10 µM at Human MAO-A is < 20%. The pKa in series [1] (read-out: pKa1) was 2.53. In series [1] (read-out: pKa2), the pKa came to 9.43. Further, on MAO-B, the IC50 came to 114 ± 3.8 nM, the “SI: hMAO-B selectivity index = IC50” value is reported as >88 and the inhibition at 0.1 µM turned out to be 43.1 ± 2%. Besides, in series [2], the “Log β1” value is reported as 12.99, the “Log β2” value was 24.76, the “Log β3” value came out at 33.88 and the “pFe^3+” value was 18.31.
For the compound `Cc1c(O)c(=O)ccn1CCNCc1coc2cc(OCc3ccc(Cl)cc3)ccc2c1=O` [Compound 17l, 1–(2-(((7-((4-Chlorobenzyl)oxy)-4-oxo-4H-chromen-3-yl)methyl)amino)ethyl)-3-hydroxy-2-methylpyridin-4(1H)-one], the melting point lay within 189 to 191 °C. Further, on Human MAO-A, inhibition was half-maximal at 1310 ± 13.4 nM (IC50). Further, in series [1] (read-out: pKa1), the pKa is 2.61. For the same compound, the pKa in series [1] (read-out: pKa2) came out at 9.47. For the same compound, on MAO-B, the half-inhibitory concentration (IC50) was 75.6 ± 3.1 nM, the “SI: hMAO-B selectivity index = IC50” value is given as 17.4 and the inhibition at 0.1 µM turned out to be 61.4 ± 3.4%. Also, in series [2], the “Log β1” value is given as 13.02, the “Log β2” value is 24.99, the “Log β3” value stood at 34.39 and the “pFe^3+” value is recorded as 18.70.

Values taken from article PMC9762789, “Chromone-based monoamine oxidase B inhibitor with potential iron-chelating activity for the treatment of Alzheimer’s disease” (Journal of Enzyme Inhibition and Medicinal Chemistry, 2022).
